This note sets out measurements from patent US9440969B2, “Compounds and methods for kinase modulation, and indications therefor” (PLEXXIKON INC., priority 2009, dated 2016).

Some results are limits rather than exact numbers.

The target of one assay is CYP3A4(BFC) (Homo sapiens, UniProt P08684). As to the kind of experiment: CYP3A4 inhibition (substrate BFC). As to conditions: read-out: Cyp IC50 (μM) 3A4(BFC). The format is in vitro ADME. An outline of the steps: (§1)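 Human CYP enzymes with fluorogenic substrates and NADPH regeneration, compound preincubated 10 min at 37 °C in 10-point 1:1 dilution series. CYP1A2 0.5 pmol/5 μM CEC, 15 min, 409/460 nm; CYP2C9 1.0 pmol/75 μM MFC, 45 min, 409/530 nm; CYP2D6 1.5 pmol/1.5 μM AMMC, 30 min, 409/530 nm; CYP3A4 1.0 pmol/50 μM BFC, 30 min, 409/460 nm. IC50 from fluorescence vs concentration.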

The next assay concerns the target CYP2C19 (Homo sapiens, UniProt P33261). As to the kind of experiment: CYP2C19 inhibition (fluorescent substrate CEC). Format: in vitro ADME. Conditions: read-out: Cyp IC50 (μM) 2C19.
Another assay concerns the target B-Raf V600E (Homo sapiens, UniProt P15056, V600E). As to the kind of experiment: B-Raf V600E kinase activity assay (AlphaScreen, biotin-MEK1 substrate). As to conditions: 100 μM ATP, 100 nM biotin-MEK1, 45 minutes at room temperature, read-out: Biochemical activity (IC50 μM) V600E. In a few lines: (§2)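 Each Raf enzyme (0.1 ng) phosphorylates 100 nM biotin-MEK1 in pH 7.0 HEPES with Mg2+/Mn2+, 100 μM ATP final, 45 min at room temperature. Phospho-MEK1/2 antibody with AlphaScreen beads is read after 3 h. IC50 comes from an 8-point dilution series.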
(In general: Bead proximity is the source of the signal in Alpha formats.)

A further assay deals with CYP2D6 (Homo sapiens, UniProt P10635). As to the kind of experiment: CYP2D6 inhibition (fluorescent substrate AMMC). Format: in vitro ADME. As to conditions: read-out: Cyp IC50 (μM) 2D6. In a few lines: as §1
The next assay has as its target c-Raf-1 (Homo sapiens, UniProt P04049). As to the kind of experiment: c-Raf-1 kinase activity assay (AlphaScreen, biotin-MEK1 substrate). As to conditions: 100 μM ATP, 100 nM biotin-MEK1, 45 minutes at room temperature; read-out: Biochemical activity (IC50 μM) c-Raf-1. In a few lines:
as §2

The next assay concerns the target T1, CYP1A2 (Homo sapiens, UniProt P05177).
T1 sequence (P05177 1-516): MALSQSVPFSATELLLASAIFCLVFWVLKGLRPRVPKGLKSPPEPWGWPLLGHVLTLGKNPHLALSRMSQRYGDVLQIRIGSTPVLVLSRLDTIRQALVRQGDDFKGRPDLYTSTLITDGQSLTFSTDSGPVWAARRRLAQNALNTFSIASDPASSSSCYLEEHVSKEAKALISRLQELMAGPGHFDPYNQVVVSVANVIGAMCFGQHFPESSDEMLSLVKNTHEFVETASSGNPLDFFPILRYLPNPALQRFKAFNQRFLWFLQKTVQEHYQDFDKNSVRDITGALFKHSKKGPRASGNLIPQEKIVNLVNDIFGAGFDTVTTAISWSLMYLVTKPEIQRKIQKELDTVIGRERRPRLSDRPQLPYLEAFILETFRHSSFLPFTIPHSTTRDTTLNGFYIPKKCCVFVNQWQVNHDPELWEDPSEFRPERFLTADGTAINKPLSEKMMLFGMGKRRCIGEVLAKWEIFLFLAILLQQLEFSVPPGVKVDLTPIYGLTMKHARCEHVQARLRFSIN
As to the kind of experiment: CYP1A2 inhibition (fluorescent substrate CEC). Format: in vitro ADME. As to conditions: read-out: Cyp IC50 (μM) 1A2. An outline of the steps:
as §1

For a further assay, the target named is B-Raf (Homo sapiens, UniProt P15056). As to the kind of experiment: B-Raf kinase activity assay (AlphaScreen, biotin-MEK1 substrate). As to conditions: 100 μM ATP, 100 nM biotin-MEK1, 45 minutes at room temperature; read-out: Biochemical activity (IC50 μM) B-Raf. An outline of the steps:
as §2

B-Raf, sequence (P15056 whole entry): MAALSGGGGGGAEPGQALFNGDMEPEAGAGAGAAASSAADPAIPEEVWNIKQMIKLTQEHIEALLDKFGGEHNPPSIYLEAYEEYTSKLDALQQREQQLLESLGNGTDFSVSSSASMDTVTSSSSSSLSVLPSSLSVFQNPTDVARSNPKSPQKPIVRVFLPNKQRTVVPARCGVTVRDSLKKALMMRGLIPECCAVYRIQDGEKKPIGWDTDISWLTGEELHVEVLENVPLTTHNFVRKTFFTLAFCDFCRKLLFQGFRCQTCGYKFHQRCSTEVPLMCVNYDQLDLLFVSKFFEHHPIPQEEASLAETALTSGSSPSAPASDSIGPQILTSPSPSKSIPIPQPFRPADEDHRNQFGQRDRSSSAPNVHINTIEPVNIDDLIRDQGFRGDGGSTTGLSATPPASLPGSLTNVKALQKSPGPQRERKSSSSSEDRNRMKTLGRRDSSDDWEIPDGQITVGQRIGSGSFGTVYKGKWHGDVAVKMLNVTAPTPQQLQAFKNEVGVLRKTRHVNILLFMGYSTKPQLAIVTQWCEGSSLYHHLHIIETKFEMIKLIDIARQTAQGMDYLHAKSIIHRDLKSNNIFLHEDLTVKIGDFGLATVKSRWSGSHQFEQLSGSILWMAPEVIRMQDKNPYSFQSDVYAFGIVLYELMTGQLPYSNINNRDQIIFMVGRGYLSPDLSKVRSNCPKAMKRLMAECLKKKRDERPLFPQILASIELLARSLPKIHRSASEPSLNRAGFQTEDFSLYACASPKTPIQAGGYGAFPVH
CYP2C19, sequence (P33261 whole entry): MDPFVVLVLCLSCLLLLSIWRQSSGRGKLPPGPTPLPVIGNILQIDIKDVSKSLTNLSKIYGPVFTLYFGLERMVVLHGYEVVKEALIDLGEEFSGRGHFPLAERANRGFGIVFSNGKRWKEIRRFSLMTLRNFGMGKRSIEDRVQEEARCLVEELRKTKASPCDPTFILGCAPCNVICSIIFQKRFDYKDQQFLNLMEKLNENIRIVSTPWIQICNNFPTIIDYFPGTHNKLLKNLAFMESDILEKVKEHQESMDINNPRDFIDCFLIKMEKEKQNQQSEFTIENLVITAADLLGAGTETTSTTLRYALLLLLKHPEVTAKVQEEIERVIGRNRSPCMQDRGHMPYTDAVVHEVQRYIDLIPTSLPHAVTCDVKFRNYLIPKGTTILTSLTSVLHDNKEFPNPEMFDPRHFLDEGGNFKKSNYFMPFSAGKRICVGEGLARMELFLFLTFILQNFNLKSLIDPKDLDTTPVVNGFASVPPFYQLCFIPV
CYP2D6, sequence (P10635 whole entry): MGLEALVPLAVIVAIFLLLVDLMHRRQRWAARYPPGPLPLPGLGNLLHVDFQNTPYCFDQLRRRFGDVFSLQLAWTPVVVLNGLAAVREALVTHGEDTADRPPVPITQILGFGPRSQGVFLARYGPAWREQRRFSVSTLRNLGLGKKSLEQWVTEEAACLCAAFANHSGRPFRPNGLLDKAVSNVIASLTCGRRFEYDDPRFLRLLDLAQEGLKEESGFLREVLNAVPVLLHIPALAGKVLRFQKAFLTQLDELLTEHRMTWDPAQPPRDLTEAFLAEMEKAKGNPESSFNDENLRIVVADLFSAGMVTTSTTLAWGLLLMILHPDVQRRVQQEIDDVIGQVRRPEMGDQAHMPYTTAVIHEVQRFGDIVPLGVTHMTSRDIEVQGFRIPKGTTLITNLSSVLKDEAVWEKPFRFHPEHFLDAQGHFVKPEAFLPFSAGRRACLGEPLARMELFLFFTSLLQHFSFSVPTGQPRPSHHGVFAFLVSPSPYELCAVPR
B-Raf V600E, sequence (P15056 whole entry V600E): as the sequence (P15056 whole entry) above, with V600E counted along it
CYP3A4(BFC), sequence (P08684 whole entry): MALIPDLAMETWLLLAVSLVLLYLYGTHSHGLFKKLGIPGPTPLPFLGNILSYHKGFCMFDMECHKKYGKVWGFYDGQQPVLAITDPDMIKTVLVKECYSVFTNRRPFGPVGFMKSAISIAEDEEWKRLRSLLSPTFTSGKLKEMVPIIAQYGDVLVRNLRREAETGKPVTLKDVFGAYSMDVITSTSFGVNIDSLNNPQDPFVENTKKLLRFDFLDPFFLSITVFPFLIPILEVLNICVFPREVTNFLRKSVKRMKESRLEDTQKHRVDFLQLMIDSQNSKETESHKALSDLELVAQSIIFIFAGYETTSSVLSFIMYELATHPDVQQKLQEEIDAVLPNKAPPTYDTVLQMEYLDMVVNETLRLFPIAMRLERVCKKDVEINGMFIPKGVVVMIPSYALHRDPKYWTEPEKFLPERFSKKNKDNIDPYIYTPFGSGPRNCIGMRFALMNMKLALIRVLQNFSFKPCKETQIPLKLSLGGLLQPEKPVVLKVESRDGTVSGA
c-Raf-1, sequence (P04049 whole entry Y340D/Y341D, form open): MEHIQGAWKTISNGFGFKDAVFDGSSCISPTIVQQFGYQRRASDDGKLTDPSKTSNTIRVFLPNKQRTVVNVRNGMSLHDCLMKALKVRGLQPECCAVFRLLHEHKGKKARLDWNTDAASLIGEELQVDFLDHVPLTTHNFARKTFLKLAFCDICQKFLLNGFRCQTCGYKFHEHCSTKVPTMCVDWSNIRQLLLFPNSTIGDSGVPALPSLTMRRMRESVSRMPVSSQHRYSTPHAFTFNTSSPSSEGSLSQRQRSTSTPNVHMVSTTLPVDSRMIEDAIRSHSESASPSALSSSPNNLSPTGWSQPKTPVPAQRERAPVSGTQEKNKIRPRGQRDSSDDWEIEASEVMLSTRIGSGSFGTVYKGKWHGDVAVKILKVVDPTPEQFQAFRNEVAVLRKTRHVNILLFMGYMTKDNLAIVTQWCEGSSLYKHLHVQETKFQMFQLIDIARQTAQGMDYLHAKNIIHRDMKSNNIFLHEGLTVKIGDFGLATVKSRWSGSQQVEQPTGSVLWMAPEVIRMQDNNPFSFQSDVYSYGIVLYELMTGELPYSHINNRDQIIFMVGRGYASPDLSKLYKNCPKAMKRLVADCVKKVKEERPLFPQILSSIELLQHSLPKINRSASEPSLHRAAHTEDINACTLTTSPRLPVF

By IC50 is commonly meant the concentration at which inhibition is half-maximal. On to `CCCS(=O)(=O)Nc1ccc(F)c(C(=O)c2c[nH]c3ncc(-c4ccc5ncsc5c4)cc23)c1F` [P-0020, Propane-1-sulfonic acid [3-(5-benzothiazol-6-yl-1H-pyrrolo[2,3-b]pyridine-3-carbonyl)-2,4-difluoro-phenyl]-amide], for which the IC50 is more than 10 µM on CYP3A4(BFC); 5 to 10 µM at CYP2C19; less than 0.1 µM on B-Raf V600E; more than 10 µM at CYP2D6; less than 0.1 µM at c-Raf-1; more than 10 µM on CYP1A2. Moreover, at B-Raf, the half-maximal inhibitory concentration (IC50) was less than 0.1 µM.
For `CCCS(=O)(=O)Nc1ccc(F)c(C(=O)c2c[nH]c3ncc(-c4ccc5[nH]cc(C)c5c4)cc23)c1F` [P-0023, Propane-1-sulfonic acid {2,4-difluoro-3-[5-(3-methyl-1H-indol-5-yl)-1H-pyrrolo[2,3-b]pyridine-3-carbonyl]-phenyl}-amide], the 50% inhibitory concentration (IC50) at CYP3A4(BFC) is more than 10 µM; at CYP2C19, less than 5 µM; on B-Raf V600E it was less than 0.1 µM; on CYP2D6, more than 10 µM; at c-Raf-1, less than 0.1 µM; on CYP1A2, more than 10 µM. Also, the IC50 at B-Raf was less than 0.1 µM.
Take `CCCS(=O)(=O)Nc1ccc(F)c(C(=O)c2c[nH]c3ncc(-c4ccc5cncnc5c4)cc23)c1F` [P-0025, Propane-1-sulfonic acid [2,4-difluoro-3-(5-quinazolin-7-yl-1H-pyrrolo[2,3-b]pyridine-3-carbonyl)-phenyl]-amide]: the concentration for half-maximal inhibition (IC50) is more than 10 µM at CYP3A4(BFC); more than 10 µM at CYP2C19; less than 0.1 µM at B-Raf V600E; more than 10 µM at CYP2D6; less than 0.1 µM on c-Raf-1; more than 10 µM at CYP1A2. Moreover, the IC50 on B-Raf was less than 0.1 µM.
In the case of `CCCS(=O)(=O)Nc1ccc(F)c(C(=O)c2c[nH]c3ncc(-c4cnn(C5CCNCC5)c4)cc23)c1F` [P-1002, Propane-1-sulfonic acid {2,4-difluoro-3-[5-(1-piperidin-4-yl-1H-pyrazol-4-yl)-1H-pyrrolo[2,3-b]pyridine-3-carbonyl]-phenyl}-amide], the IC50 is more than 10 µM on CYP3A4(BFC); more than 10 µM at CYP2C19; less than 0.1 µM on B-Raf V600E; more than 10 µM on CYP2D6; less than 0.1 µM on c-Raf-1; more than 10 µM at CYP1A2. Moreover, the IC50 on B-Raf is less than 0.1 µM.
Turning to `O=C(c1c(F)ccc(NS(=O)(=O)c2ccc(C(F)(F)F)cc2)c1F)c1c[nH]c2ncc(-c3cnn(C4CCNCC4)c3)cc12` [P-1004, N-{2,4-Difluoro-3-[5-(1-piperidin-4-yl-1H-pyrazol-4-yl)-1H-pyrrolo[2,3-b]pyridine-3-carbonyl]-phenyl}-4-trifluoromethyl-benzenesulfonamide], the IC50 on CYP3A4(BFC) was 5 to 10 µM; at CYP2C19, more than 10 µM; on B-Raf V600E, less than 0.1 µM; on CYP2D6, more than 10 µM; at c-Raf-1 it was less than 0.1 µM; on CYP1A2, more than 10 µM. In addition, the 50% inhibitory concentration (IC50) at B-Raf is less than 0.1 µM.
As for `CCCS(=O)(=O)Nc1ccc(F)c(C(=O)c2c[nH]c3ncc(-c4csc(-n5ccnc5C)n4)cc23)c1F` [P-1101, Propane-1-sulfonic acid (2,4-difluoro-3-{5-[2-(2-methyl-imidazol-1-yl)-thiazol-4-yl]-1H-pyrrolo[2,3-b]pyridine-3-carbonyl}-phenyl)-amide], the half-maximal inhibitory concentration (IC50) at CYP3A4(BFC) was more than 10 µM; at CYP2C19 it was more than 10 µM; at B-Raf V600E it was less than 0.1 µM; at CYP2D6, more than 10 µM; at c-Raf-1, less than 0.1 µM; on CYP1A2, more than 10 µM. Besides, on B-Raf, the IC50 was less than 0.1 µM.
Take `Cc1ccc(-c2cnc3[nH]cc(C(=O)c4c(F)ccc(NS(=O)(=O)c5cc(F)ccc5F)c4F)c3c2)cn1` [P-1408, N-{2,4-Difluoro-3-[5-(6-methyl-pyridin-3-yl)-1H-pyrrolo[2,3-b]pyridine-3-carbonyl]-phenyl}-2,5-difluoro-benzenesulfonamide]: the IC50 is more than 10 µM on CYP3A4(BFC); more than 10 µM on CYP2C19; less than 0.1 µM at B-Raf V600E; more than 10 µM at CYP2D6; less than 0.1 µM on c-Raf-1; more than 10 µM at CYP1A2. On B-Raf, the IC50 was less than 0.1 µM.
Take `Cc1ncc(-c2cnc3[nH]cc(C(=O)c4c(F)ccc(NS(=O)(=O)c5cc(F)ccc5F)c4F)c3c2)cn1` [P-1503, N-{2,4-Difluoro-3-[5-(2-methyl-pyrimidin-5-yl)-1H-pyrrolo[2,3-b]pyridine-3-carbonyl]-phenyl}-2,5-difluoro-benzenesulfonamide]: the IC50 on CYP3A4(BFC) is more than 10 µM; on CYP2C19, more than 10 µM; at B-Raf V600E, less than 0.1 µM; at CYP2D6, more than 10 µM; at c-Raf-1, less than 0.1 µM; on CYP1A2, more than 10 µM. The IC50 on B-Raf was less than 0.1 µM.
